We go through five compounds from US4638009A, “Derivatives of 3-pyrrolidinopropiophenone and a process for preparation thereof” (Hokuriku Pharmaceutical Co., Ltd., priority 1984, dated 1987).

The conditions of data set [1]: versus Tolperisone; cited from earlier work.
The conditions of data set [2]: cited from earlier work; for side effect (prior art): in vivo.
Data set [3] concerns oxotremorine-induced tremor. The data set can be described thus: Effect on oxotremorine-induced tremor. It is filed as in vivo, male ddY mice. Conditions: 100 mg/kg p.o., oxotremorine 1 mg/kg i.p. 15 min later, 0=absent to 5=lack of righting reflex; for tremor score, 5 min: passage of time 5 min; for tremor score, 10 min: passage of time 10 min; for tremor score, 15 min: passage of time 15 min; for tremor score, 20 min: passage of time 20 min; for tremor score, 30 min: passage of time 30 min. On the procedure: 3. Effect on oxotremorine-induced tumor
Male ddY mice 5 weeks old were used with 5 animals in a group. The compounds were administrated per os at a dose of 100 mg/kg and after 15 minutes oxotremorine was intraperitoneally administered at dose of 1 mg/kg. The strength of the induced tremor was observed by the method of Suzuki et al (Folia Pharmacologica Japonica, 83, 127(1983) and scored up with passage of time as follows:
4=severe, 5=lack of righting reflex.

Data set [4] has as its system nicotine-induced convulsion. The experiment in a line: Activity on nicotine-induced convulsion. Conditions: compound 25 mg/kg p.o., nicotine tartrate 3 mg/kg i.v. 15 min later, n=5; for mortality: dead animals because of the convulsions. It is filed as in vivo, male ddY mice. How it is done:
2. Activity on nicotine-induced convulsion
Male ddY mice 5 weeks old were used with 5 animals in a group. The compounds were administered per os at a dose of 25 mg/kg. After 15 minutes of drug administration, Nicotine tartarate was administered intravenously at an amount of 3 mg/kg and the tonic convulsions and dead animals because of the convulsions have been measured. The effect of the compounds has been indicated by percentage of appearance of tonic convulsion and the mortality.

The nature of a further data set: in vivo. Conditions: mouse. How it is done:
Male ddY mice 5 weeks old were used with 5 animals at a group. The compounds were administrated orally with each dosage. LD50 was determined by the Probit method from dead animals dying within 7 days.

Structures can show the parent of a compound that is named as a salt.

As to `CCc1ccc(C(=O)C(C)CN2CCCCC2)cc1` (stereo not drawn) [Eperisone], in data set [1], the “muscle relaxation activity of Eperisone (prior art)” value is “improvement in muscle relaxation activity”. Moreover, in data set [2] (Eperisone versus Tolperisone), the “toxicity (prior art)” value was “just the same strong toxicity as Tolperisone”. Further, in data set [2], the “side effect (prior art)” value was “hepatic and kidney function disorder”.

One may read the mortality as the percentage killed. Read a low mortality as a weak lethal effect. For `CCc1ccc(C(=O)C(C)CN2CCCC2)cc1` (stereo not drawn) [Compound 2, 4'-Ethyl-2-methyl-3-pyrrolidinopropiophenone], in data set [3], the “tremor score, 5 min” value was found to be 0; the “tremor score, 10 min” value is on record as 0.4; the “tremor score, 15 min” value amounted to 0.3; the “tremor score, 20 min” value stood at 0.4. For the same compound, the “tremor score, 30 min” value in data set [3] is listed as 0.4. Also, in data set [4], the “appearance of tonic convulsion” value is 40% and the mortality is listed as 60%.

For orientation: LD50 means the dose at which mortality reaches 50%. Low readings indicate a more toxic substance, high ones a less toxic substance. Take `CCCCc1ccc(C(=O)C(C)CN2CCCC2)cc1` (stereo not drawn) [Compound 1, 4'-n-Butyl-2-methyl-3-pyrrolidinopropiophenone]: in data set [3], the “tremor score, 5 min” value came out at 0; the “tremor score, 10 min” value was found to be 0.4; the “tremor score, 15 min” value was found to be 0.4; the “tremor score, 20 min” value amounted to 0.9. In data set [3], the “tremor score, 30 min” value turned out to be 0.8. Moreover, in data set [4], the “appearance of tonic convulsion” value worked out at 20% and the mortality was 40%. The LD50 at 168 h in “in vivo” (oral, deaths within 7 days, Probit method, n=5 per group) is 520 mg/kg.

For the compound `Cc1ccc(C(=O)C(C)CN2CCCCC2)cc1` (stereo not drawn) [Tolperisone], the “side effect (prior art)” value in data set [2] is “hepatic functional disorder”.

On to `CCc1ccc(C(=O)C(C)CN2CCCCC2)cc1` (stereo not drawn) [Reference Drug, Eperisone hydrochloride, reference compound], for which, in data set [3], the “tremor score, 5 min” value is recorded as 0; the “tremor score, 10 min” value turned out to be 0.4; the “tremor score, 15 min” value is listed as 0.3; the “tremor score, 20 min” value is reported as 0.2. Besides, the “tremor score, 30 min” value in data set [3] came to 0. In data set [4], the “appearance of tonic convulsion” value worked out at 60% and the mortality came out at 100%. This compound also registered an LD50 at 168 h in “in vivo” (po) of 332 mg/kg.
